Experimental data as given in US20220249596A1, “PIC1 PEPTIDE COMPOSITIONS AND METHODS OF USE THEREOF FOR TREATMENT OF HYPOXIC ISCHEMIC ENCEPHALOPATHY” (REALTA HOLDINGS, LLC, priority 2019, published 2022).
No end group written: not given here.

Columns and labels:
Format in all cases: in vivo, rat
[1] = test system: C1q; test: Systemic C1q level in plasma, fluorescent immunoassay; conditions: 8, 12 and 24 hours after initial insult, P<0.05
Method: (§1) The local and systemic effects of NT, HT and PIC1 treatment on the complement cascade were measured. CNS C1q levels and systemic C1q and C5a levels were measured using a fluorescent immunoassay.
(§2) Systemic C1q and C5a levels were measured as follows. 100 μl of 1:5 plasma in 1×PBS was added to the wells of a plate described above and incubated overnight at 4° C. The plates were washed 3 times with PBST and blocked with NDS or NGS for one hour. Samples were probed with either 1:50 goat anti-human C1q (Complement Technology) in NDS or 1:200 mouse anti-human C5a (Human Complement Component C5a DuoSet ELISA, R&D Systems, Inc., Minneapolis, Minn.) in NGS for one hour at RT. The wells were washed and 1:500 donkey anti-goat 488 (Life Technologies) in NDS or 1:500 goat anti-mouse AF 568 (Life Technologies) in NGS was added, and incubated for one hour at RT. The wells were washed and the plate read using a Synergy HT (BioTek). Systemic C3a levels in plasma (1:20 dilution) were measured using a standard ELISA, according to the manufacturer's instructions (Rat C3a ELISA Kit, TSZ ELISA, Waltham, Mass.).

[2] = Beam walk assay, fine motor coordination and balance; conditions: versus NT animals
Method: Fine motor coordination and balance was assessed by a beam walk assay, which was performed as follows. Gross motor function and balance was evaluated using the beam walking test 6 weeks after HIE. Beams of varying widths (19 mm, 13 mm, or 6 mm) were used that led to a dark escape box. Each beam was 90 cm long and elevated 60 cm from the ground. The goal of this test is for the rat to stay upright and walk across elevated narrow beams of decreasing width (0.75 and 0.25 inches, or 19 mm and 6 mm) to a safe platform.
Rats were placed on a loading platform on the proximal end of the apparatus, and instinctively walked towards the box when placed on a beam. Rats were trained on each beam prior to the test. On the test day, rats were placed on the loading platform, and videos were recorded. Rats were given up to 5 attempts to cross each beam. Failures, i.e., inability to cross along with right and left foot slips, were analyzed by an investigator blinded to the treatment

[3] = test system: systemic complement activity; test: Complement hemolytic assay (sensitized human erythrocytes) with plasma of injected neonatal rats
Method: Complement activity was assayed in plasma after i.p. injection of PIC1 in term-equivalent neonatal rats. At post-natal day 7 (P7; day of birth=P1), the rat brain is histologically similar to that of a 32- to 34-week gestation human fetus or newborn infant, i.e., cerebral cortical neuronal layering is complete, the germinal matrix is involuting, and white matter as yet has undergone little myelination. Hypoxic-ischemic brain damage in the 7-day-old rat pups is induced with unilateral common carotid artery ligation followed by systemic hypoxia produced by the inhalation of 8% oxygen/balance nitrogen, at constant temperature (37° C.) (Vanucci et al. 2005. Dev Neurosci, Vol. 27, pages 81-86).
Timed pregnant Wistar rats (Hilltop Lab Animals Inc., Scottdale, Pa.) were purchased at embryonic day 19, housed individually, and allowed to deliver spontaneously. Pups were randomized on the day of birth to control for the litter effect (10/litter). At P10-12 (term-equivalent), pups were randomly assigned to 4 different treatment groups: no intervention (control), normothermia (NT), hypothermia-treated vehicle controls (HT), and treatment (PIC1). NT and HT animals were injected with the vehicle used to suspend PIC1. Experimental animals underwent unilateral carotid ligation followed by exposure to hypoxia (8% O2/balanced nitrogen, Vannucci model) for 45 minutes. Pups in the HT group were placed in open jars in a temperature controlled chamber set to 28-30° C. to maintain a target rectal temperature of 31-32° C. for 6 hours, while pups in the control, NT, and PIC1 groups were kept in a separate chamber at 37° C. Pups in the PIC1 group were injected with 2 doses of PIC1 (160 mg/kg, i.p.), with the first dose at the time of carotid ligation, and the second dose four hours later. After intervention, pups were placed back with the dam, and harvested at different time points.
Cobra-venom factor (CVF) was injected i.p. into one group of animals to deplete complement activity in vivo 24 hours prior to carotid ligation. On the day of surgery, a group of animals was injected with 160 mg/kg of PIC1 i.p. at the time of carotid ligation. The animals were harvested at 0.5-48 hours after injection, and plasma was collected by cardiac puncture.
Human AB erythrocytes were derived from healthy human volunteers. The erythrocytes were sensitized as described in Bonaparte et al. using rat anti-human glycophorin A IgG (LifeSpan Biosciences, Inc., Seattle, Wash.). Sensitized cells (5×10^7), serum, and GVBS^++ (Veronal-buffered saline, 0.1% gelatin, 0.15 mM CaCl2, and 1.0 mM MgCl) were combined in a total volume of 375 μl , and incubated for 1 hour at 37° C. in borosilicate glass tubes. […] The tubes were centrifuged and the absorbance of the supernatants was measured in a spectrophotometer at 412 nm.

[4] = test system: C5a; test: Systemic C5a level in plasma, fluorescent immunoassay; conditions: 12 and 24 hours after initial insult, P<0.05; persisted to 48 hours
Method: as §1, §2

IALILEPICCQERAA-dPEG24 (cysteine pairing not given here) [PIC1]
C1q levels in plasma, NT animals relative to PIC1-treated animals [1]: significantly higher | beam walk performance ([2]; 0.25 inch beam): performed significantly better | beam walk performance ([2]; 0.75 inch beam): performed significantly better | inhibition of systemic complement activation ([3]; 30 minutes after i.p. injection, 160 mg/kg, plasma): 70% | return of complement activity to baseline, time after injection ([3]; gradual return after i.p. injection, 160 mg/kg): ≤ 8 h | systemic complement inhibition at 0.5, 1, 2 and 4 hours after injection ([3]; versus untreated NT animals, P<0.05): significant systemic complement inhibition | complement activity at 8, 16 and 48 hours after injection ([3]; versus untreated controls): comparable to that of untreated controls | systemic C5a levels, NT animals relative to PIC1-treated animals [4]: significantly higher
